# Experimental data taken from paper PMC6345779, “Hypoculoside, a sphingoid base-like compound from Acremonium disrupts the membrane integrity of yeast cells” (Scientific Reports, 2019).
# Experiments:
# [1] = system: Candida albicans strain SC5314; assay: Broth microdilution growth inhibition of Candida albicans (CLSI guidelines, OD600 after 24 h); format: cell-based; conditions: strain SC5314, OD600 nm after 24 hours, read-out: IC50 for inhibition of growth of C. albicans cells
# Method: Figure 2 Hypoculoside has antifungal activity. (A) Workflow used in the purification and analysis of hypoculoside from Acremonium sp. F2434. (B) Structure of hypoculoside (8) and its aglycone derivative hypoculine (9). (C) Logarithmically growing Candida albicans cells were exposed to hypoculoside and amphotericin B at various concentrations in triplicates in a 96-well microplate. Growth of the cells was quantified by recording the absorbance at 600 nm after 24 hours. Growth (normalized with respect to DMSO-treated cells) is plotted against log of concentration of the compound. A picture of the microplate after 24 hours of incubation at 30 °C is shown in Supplementary Fig. S2A. (D) Effect of hypoculoside on the growth of Saccharomyces cerevisiae cells grown in YPD medium was analyzed in the similar way as for Candida albicans described above in C.
# We evaluated the potency of hypoculoside by examining its effect on the growth of Candida albicans strain (SC5314) using the Clinical and Laboratory Standards Institute (CLSI) guidelines. We used the well-known antifungal amphotericin B as a positive control. We exposed logarithmically growing Candida albicans cells to hypoculoside and amphotericin B at various concentrations and monitored the growth by recording the OD600 nm after 24 hours. […]
# [2] = system: Saccharomyces cerevisiae diploid wild-type strain (BY4743); assay: Growth inhibition of wild type Saccharomyces cerevisiae in YPD medium (96-well, OD600); format: cell-based
# Method: (§1) Figure 5 Structure-activity studies of hypoculoside. (A) Wild type strain (BY4743), vps35Δ, pep8Δ, vps20Δ, vps27Δ and vps36Δ strains were grown in YPD medium in the presence of hypoculoside or hypoculine at the indicated concentrations. Normalized growth at the different concentrations of hypoculoside and hypoculine tested after 24 hours of incubation at 30 °C is plotted for each strain. (B) Wild type strain (BY4743), vps35Δ, pep8Δ, vps20Δ, vps27Δ and vps36Δ strains were grown in YPD medium in the presence of hypoculoside or phytosphingosine or dihydrosphingosine at the indicated concentrations. Normalized growth at the different concentrations of hypoculoside, phytosphingosine and dihydrosphingosine tested after 24 hours of incubation at 30 °C is plotted for each strain.
# Susceptibility of Candida albicans strain SC5314 to hypoculoside and amphotericin B was determined by a broth microdilution assay using Clinical Laboratory Standards Institute (CLSI) guidelines. Cells grown to exponential phase in YPD medium (1% Yeast extract, 2% Bacto peptone and 2% glucose) were harvested, washed and resuspended in RPMI 1640 medium at a density of 2×10^3 cells/mL. RPMI 1640 medium with L-glutamine without sodium bicarbonate (Sigma) was buffered with 0.165 M morpholinepropanesulfonic acid (MOPS) to a pH of 7.0. Two-fold dilutions of hypoculoside and amphotericin B were prepared such that final concentration of DMSO was 1% in all cultures. Cell suspension was distributed in microtiter plate (200 µL/well) and incubated at 35 °C with 220 rpm for 24 h. The Saccharomyces cerevisiae diploid wild-type strain (BY4743) was used for determining the Inhibitory Concentration (IC) of hypoculoside. Frozen yeast cells were allowed to recover on YPD agar plates and grown in YPD medium for nine generations (OD600 nm ≤ 2). Cells were diluted to OD600 nm of 0.0625 in YPD medium. 200 μL of the diluted yeast culture was transferred into the 96-well microtiter plate having 2-fold serially diluted concentrations of hypoculoside. Cells were incubated in a microplate reader for 16–24 hours at 30 °C with shaking. IC of hypoculoside was computed by comparing the growth of treated versus control cells.
# [3] = system: vps35Δ, pep8Δ, vps20Δ, vps27Δ and vps36Δ strains; assay: Single-mutant sensitivity growth assay of deletion strains in YPD medium; format: cell-based, Saccharomyces cerevisiae
# Method: Figure 3 Homozygous profiling of hypoculoside in Saccharomyces cerevisiae. (A) logFC (Fitness Coefficient) was plotted against P-value for the 3702 mutants that were analyzed by HOP. The more negative the logFC value of a mutant, more sensitive is the mutant to hypoculoside. Mutants that have logFC < −0.5 and P-value < 0.05 are indicated by red dots and the remaining strains are indicated as blue dots. For the sake of clarity, gene names of only a subset of the top hits are indicated in the plot. (B) Wild type strain BY4743 and 24 deletion strains that were sensitive to hypoculoside in the HOP assay, were grown in the YPD medium in the presence of either DMSO or hypoculoside at different concentrations (0, 0.6, 1.3, 2.7 and 5.5 µM). Normalized growth at the different concentrations of hypoculoside tested after 24 hours of incubation at 30 °C is plotted for each strain.
# To test the validity of our HOP data, we first identified 336 ‘hypoculoside-sensitive’ mutants (Supplementary Table S1) that had at least a 1.4-fold inhibitory effect on their growth rate (i.e. logFC ≤ −0.5) with a P-value ≤ 0.05. From the list of 336 mutants, we chose 24 mutants that represent different Gene Ontology categories (see below) and tested their sensitivity to hypoculoside. Eighteen of the total 24 mutants were sensitive to hypoculoside confirming the HOP data (Fig. 3B). We also tested mutants that were predicted to be resistant to hypoculoside (positive logFC ≥ 0.5 and P-value ≤ 0.05). But none of them were resistant to hypoculoside in comparison to wild type strain in the single-mutant sensitivity assays (data not shown).
# as §1
smiles,measurement,setting,value
"CC(N)C(O)CCCCCCCCCCCCCCCCCCC(O)C(C)OC1OC(CO)C(O)C(O)C1O (stereo not shown) [hypoculoside, Hypoculoside]",IC50,[1],7.6 µM
same,concentration that inhibited the growth of wild type cells,"[2]; BY4743, YPD, 24 hours at 30 °C (Fig. 5A)",11 µM
same,IC50,"[2]; Saccharomyces cerevisiae, read-out: IC50 for growth of Saccharomyces cerevisiae cells",7.2 µM
same,inhibition at 5.5 µM,"[2]; Saccharomyces cerevisiae, 5.5 µM, YPD, 24 hours at 30 °C",10%
same,"inhibition of growth of the vps35, pep8, vps20, vps27 and vps36 mutants","[3]; 5.5 µM, YPD, 24 hours at 30 °C",completely inhibited
same,"concentration that inhibited the growth of the vps35, pep8, vps20, vps27 and vps36 mutants","[3]; YPD, 24 hours at 30 °C (Fig. 5A)",5.5 µM
same,toxicity to vesicular trafficking mutants in comparison to the wild type strain,[3]; several vesicular trafficking mutants,two-fold more toxic
